Where two headings read alike, the source gives them in different places.
Test system: tumor-repopulating cells of B16-F1 melanoma
Assay: Inhibitory activity on proliferation of tumor-repopulating cells (TRCs) of B16-F1 melanoma in 3D fibrin gel
Type: cell-based
Details: for IC50: colony tumor volume, read-out: IC50 of inhibition on TRCs of B16-F1 melanoma/μM
Method: B16-F1 Melanoma cells were incubated with 3D fibrin gel medium (90-Pa) for 5 days, and the desired tumor-repopulating cells of melanoma were screened (Nat. Mater. 2012, 11, 734). Subsequently, the culture medium was respectively treated with collagenase and neutral protease II, and the tumor-repopulating cells of B16-F1 melanoma were released, then the obtained repopulating cells were transferred to a freshly prepared medium to be resuspended and maintained at single-cell state. The tumor-repopulating cells of B16-F1 melanoma were inoculated in 3D fibrin gel medium (90-Pa) for 5 days, with 0.1% DMSO as the negative control group, Tazarotene and Bexarotene as the positive control drugs respectively, […] for 5 days. The colony tumor size was measured and calculated, and the inhibition rate of each drug on the tumor-repopulating cells of B16-F1 melanoma was calculated. The results of inhibitory activity of the compound of the present invention on the proliferation of tumor-repopulating cells of B16-F1 melanoma were shown in Table 2 below.

[1] = Mus musculus, B16-F1, 120 h, 10 μM, incubated 5 days, colony tumor size, read-out: Inhibition rate on TRCs of B16-F1 melanoma at a concentration of 10 μM (%)
[2] = Mus musculus, B16-F1, dose-response curve
[3] = Mus musculus, B16-F1, 10 μM (Table 3), read-out: Inhibition rate on TRCs of B16-F1 melanoma at a concentration of 10 μM/%

Structure (SMILES) | inhibition at 10 µM [1] [%] | further results
C=C(c1ccc(C(=O)O)cc1)c1cc2c(cc1C)C(C)(C)CCC2(C)C [Bexarotene, reference compound] | 63.3 | –
CCOC(=O)c1ccc(C#Cc2ccc3c(c2)C(C)(C)CCS3)nc1 [Tazarotene, reference compound] | 67.6 | –
COC(=O)c1ccc(C#Cc2ccc3c(c2)C(C)(C)CCS3)cc1O [WYC-101, methyl 4-((4,4-dimethylthiochroman-6-yl)ethynyl)-2-hydroxybenzoate] | 76 | –
COC(=O)c1ccc(C#Cc2ccc3c(c2)C(C)(C)CCS3)cc1OC [WYC-102, methyl 4-((4,4-dimethylthiochroman-6-yl)ethynyl)-2-methoxybenzoate] | 59.1 | –
CC1(C)CCSc2ccc(C#Cc3ccc(C(=O)O)c(O)c3)cc21 [WYC-105, 4-((4,4-dimethylthiochroman-6-yl)ethynyl)-2-hydroxybenzoic Acid] | – | inhibition at 10 µM (Mus musculus, B16-F1, 120 h, read-out: Inhibition rate on TRCs of B16-F1 melanoma at a concentration of 10 μM (%)): 64.1%
COc1cc(C#Cc2ccc3c(c2)C(C)(C)CCS3)ccc1C(=O)O [WYC-106] | 72.4 | –
COC(=O)c1ccc(C#Cc2ccc3c(c2)C(C)(C)CCS3)c(O)c1 [WYC-107, methyl 4-((4,4-dimethylthiochroman-6-yl)ethynyl)-3-hydroxybenzoate] | 75 | IC50 [2]: 2.12 µM; inhibition at 10 µM [3]: 75%
CC1(C)CCSc2ccc(C#Cc3cnc(C#N)nc3)cc21 [WYC-202, 2-cyano-5-((4,4-dimethylthiochroman-6-yl)ethynyl)pyrimidine] | 85.3 | –
CCOC(=O)c1cnc(C#Cc2ccc3c(c2)C(C)(C)CCS3)nc1 [WYC-203, ethyl 2-((4,4-dimethylthiochroman-6-yl)ethynyl)pyrimidin-5-carboxylate] | 90.5 | –
COC(=O)c1ncc(C#Cc2ccc3c(c2)C(C)(C)CCS3)cn1 [WYC-204, methyl 5-((4,4-dimethylthiochroman-6-yl)ethynyl)pyrimidin-2-carboxylate] | 25.6 | –
CCOC(=O)c1ncc(C#Cc2ccc3c(c2)C(C)(C)CCS3)cn1 [WYC-205, ethyl 5-((4,4-dimethylthiochroman-6-yl)ethynyl)pyrimidin-2-carboxylate] | 91.5 | –
CC1(C)CCSc2ccc(C#Cc3ncc(C(=O)O)cn3)cc21 [WYC-206, 2-((4,4-dimethylthiochroman-6-yl)ethynyl)pyrimidin-5-carboxylic acid] | 77.2 | –
CC1(C)CC[S+]([O-])c2ccc(C#Cc3cnc(C#N)nc3)cc21 (centres unmarked) [WYC-207, 2-cyano-5-((4,4-dimethyl-1-oxothiochroman-6-yl)ethynyl)pyrimidine] | 92.5 | IC50 [2]: 3.3 µM; inhibition at 10 µM [3]: 92.5%
CCOC(=O)c1ncc(C#Cc2ccc3c(c2)C(C)(C)CC[S+]3[O-])cn1 (centres unmarked) [WYC-208, ethyl 5-((4,4-dimethyl-1-oxothiochroman-6-yl)ethynyl)pyrimidin-2-carboxylate] | 27.7 | –
CCOC(=O)c1cnc(C#Cc2ccc3c(c2)C(C)(C)CC[S@+]3[O-])nc1 [WYC-209A, ethyl 2-((4,4-dimethyl-1S-oxothiochroman-6-yl)ethynyl)pyrimidin-5-carboxylate] | – | Inhibition rate on TRCs of B16-F1 melanoma at a concentration of 10 μM/% (10 μM (Table 3)): 98.9%; Inhibition rate on TRCs of B16-F1 melanoma at a concentration of 10 μM (%) (10 μM, incubated 5 days, colony tumor size): 98.9%; IC50 (dose-response curve): 0.15 µM
CCOC(=O)c1cnc(C#Cc2ccc3c(c2)C(C)(C)CC[S@@+]3[O-])nc1 [WYC-209B, ethyl 2-((4,4-dimethyl-1R-oxothiochroman-6-yl)ethynyl)pyrimidin-5-carboxylate] | 98.7 | IC50 [2]: 0.22 µM; inhibition at 10 µM [3]: 98.7%
CC1(C)CC[S+]([O-])c2ccc(C#Cc3ncc(C(=O)O)cn3)cc21 (centres unmarked) [WYC-210, 2-((4,4-dimethyl-1-oxothiochroman-6-yl)ethynyl)pyrimidin-5-carboxylic Acid] | 18.1 | –
CC1(C)CCSc2ccc(C#Cc3ccc(C(=O)O)c(N)c3)cc21 [WYC-212, 2-amino-4-((4,4-dimethylthiochroman-6-yl)ethynyl)benzoic Acid] | 93.2 | IC50 [2]: 2.28 µM; inhibition at 10 µM [3]: 93.2%
CC(=O)Nc1cc(C#Cc2ccc3c(c2)C(C)(C)CCS3)ccc1C(=O)O [WYC-213, 2-acetamido-4-((4,4-dimethylthiochroman-6-yl)ethynyl)benzoic Acid] | 71.1 | –
CC1(C)CC[S+]([O-])c2ccc(C#Cc3ccc(C(=O)O)c(N)c3)cc21 (centres unmarked) [WYC-214, 2-amino-4-((4,4-dimethyl-1-oxothiochroman-6-yl)ethynyl)benzoic Acid] | 51.6 | –

Structure (SMILES) | inhibition at 10 µM [1] [%] | further results
COC(=O)c1ccc(C#Cc2ccc3c(c2)C(C)(C)CC[S+]3[O-])cc1N (centres unmarked) [WYC-215, methyl 2-amino-4-((4,4-dimethyl-1-oxothiochroman-6-yl)ethynyl)benzoate] | 80.2 | –
CCOC(=O)c1ccc(C#Cc2ccc3c(c2)C(C)(C)CCS3)cc1N [WYC-216, ethyl 2-amino-4-((4,4-dimethylthiochroman-6-yl)ethynyl)benzoate] | 84 | –
CCOC(=O)c1ccc(C#Cc2ccc3c(c2)C(C)(C)CCS3)cc1NC(C)=O [WYC-217, ethyl 2-acetamido-4-((4,4-dimethylthiochroman-6-yl)ethynyl)benzoate] | 90.3 | –
CCOC(=O)c1ccc(C#Cc2ccc3c(c2)C(C)(C)CC[S+]3[O-])cc1N (centres unmarked) [WYC-218, ethyl 2-amino-4-((4,4-dimethyl-1-oxothiochroman-6-yl)ethynyl)benzoate] | 90.4 | –
CNc1cc(C#Cc2ccc3c(c2)C(C)(C)CCS3)ccc1C(=O)OC [WYC-219, methyl 2-methylamino-4-((4,4-dimethylthiochroman-6-yl)ethynyl)benzoate] | 64.8 | –
COC(=O)c1ccc(C#Cc2ccc3c(c2)C(C)(C)CCS3)cc1N [WYC-220, methyl 2-amino-4-((4,4-dimethylthiochroman-6-yl)ethynyl)benzoate] | 65.5 | –
COC(=O)c1ccc(C#Cc2ccc3c(c2)C(c2ccccc2)=CCC3(C)C)cc1O [WYC-301, methyl 4-((5,5-dimethyl-8-phenyl-5,6-dihydronaphth-2-yl)ethynyl)-2-hydroxybenzoate] | 34.4 | –
CCOC(=O)c1ccc(C#Cc2ccc3c(c2)C(c2ccccc2)=CCC3(C)C)cc1O [WYC-302, ethyl 4-((5,5-dimethyl-8-phenyl-5,6-dihydronaphth-2-yl)ethynyl)-2-hydroxybenzoate] | 21.9 | –
CCOC(=O)c1ccc(C#Cc2ccc3c(c2)C(C)(C)CCS3)cc1F [WYC-303, ethyl 2-fluoro-4-((4,4-dimethylthiochroman-6-yl)ethynyl)benzoate] | 71.1 | –
CC1(C)CCSc2ccc(C#Cc3ccc(C(=O)O)c(F)c3)cc21 [WYC-304, 2-fluoro-4-((4,4-dimethylthiochroman-6-yl)ethynyl)benzoic Acid] | 75.8 | –
CCOC(=O)c1ccc(C#Cc2ccc3c(c2)C(c2ccccc2)=CCC3(C)C)cc1F [WYC-305, ethyl 4-((5,5-dimethyl-8-phenyl-5,6-dihydronaphth-2-yl)ethynyl)-2-fluorobenzoate] | 26 | –
CC1(C)CC=C(c2ccccc2)c2cc(C#Cc3ccc(C(=O)O)c(F)c3)ccc21 [WYC-306, 4-((5,5-dimethyl-8-phenyl-5,6-dihydronaphth-2-yl)ethynyl)-2-fluorobenzic Acid] | 15.2 | –
CCOC(=O)c1ccc(C#Cc2ccc3c(c2)C(C)(C)CCS3)c(F)c1 [WYC-307, ethyl 3-fluoro-4-((4,4-dimethylthiochroman-6-yl)ethynyl)benzoate] | 70.3 | –
CCOC(=O)c1ccc(C#Cc2ccc3c(c2)C(C)(C)CCS3)c([N+](=O)[O-])c1 [WYC-308, ethyl 3-nitro-4-((4,4-dimethylthiochroman-6-yl)ethynyl)benzoate] | 71.9 | –
CC1(C)CCSc2ccc(C#Cc3ccc(C(=O)O)cc3[N+](=O)[O-])cc21 [WYC-309, 3-nitro-4-((4,4-dimethylthiochroman-6-yl)ethynyl)benzoic Acid] | 56.8 | –
CC1(C)CCSc2ccc(C#Cc3ccc(C(=O)O)cc3F)cc21 [WYC-310, 3-fluoro-4((4,4-dimethylthiochroman-6-yl)ethynyl)benzoic Acid] | 76.8 | –
CCOC(=O)c1ccc(C#Cc2ccc3c(c2)C(C)(C)CC[S+]3[O-])c([N+](=O)[O-])c1 (centres unmarked) [WYC-311, ethyl 3-nitro-4-((4,4-dimethyl-1-oxothiochroman-6-yl)ethynyl)benzoate] | 80.2 | –
CCOC(=O)c1ccc(C#Cc2ccc3c(c2)C(C)(C)CC[S+]3[O-])c(F)c1 (centres unmarked) [WYC-312, ethyl 3-fluoro-4-((4,4-dimethyl-1-oxothiochroman-6-yl)ethynyl)benzoate] | 71 | –
CCOC(=O)c1ccc(C#Cc2ccc3c(c2)C(C)(C)CCS3)c(F)c1F [WYC-313, ethyl 2,3-difluoro-4((4,4-dimethylthiochroman-6-yl)ethynyl)benzoate] | 62.2 | –
CC1(C)CCSc2ccc(C#Cc3ccc(C(=O)O)c(F)c3F)cc21 [WYC-314, 2,3-difluoro-4((4,4-dimethylthiochroman-6-yl)ethynyl)benzoic Acid] | 70.1 | –

Source: patent publication US10556879B2, “Retinoid compound, preparation method therefor, intermediates thereof and application thereof” (SHANGHAI INSTITUTE OF ORGANIC CHEMISTRY, CHINESE ACADEMY OF …, priority 2016, dated 2020)
